Data taken from article PMC8760490, “Discovery of novel furanylbenzamide inhibitors that target oncogenic tyrosine phosphatase SHP2 in leukemia cells” (The Journal of Biological Chemistry, 2021).

Legend:
[1] = test system: phospho-ERK1/2 (p-ERK1/2) in MOLM-13 AML cells; assay: p-ERK1/2 immunoblot, MOLM-13; type: cell-based; details: SBI-4668 3, 10, 30 μM, RMC-4550 1 μM
Procedure: Because SHP2 activity is critical for ERK activation, we used phospho-ERK1/2 (p-ERK1/2) as a more direct readout of SHP2 inhibitor efficacy. […] This p-ERK rebound in MOLM-13 cells treated with RMC-4550 is reminiscent of previously reported data from human hepatoma Hep3B cells treated with SHP099 ([34]). We also tested the effects of SBI-4668 or RMC-4550 on two patient-derived AML samples (Fig. 4F).
Cells cultured in RPMI medium were treated as indicated in the legends to the figures. Total protein extracts were prepared in modified radioimmunoprecipitation assay lysis buffer (25 mM Tris–HCl, pH 7.4, 10% glycerol, 0.2% Triton X-100, 150 mM NaCl, 2 mM Na3VO4, and 1 mM EDTA) containing a protease inhibitor cocktail (Roche Applied Science). Equal amounts of protein were separated on 4 to 12% (p-ERK1/2 blots) or 4 to 20% (SHP2 blots) Bis–Tris gels by SDS-PAGE and transferred to nitrocellulose (p-ERK1/2 blots) or 0.2 μm polyvinylidene fluoride (SHP2 blots) membranes. Membranes were blocked in 5% dry milk (Bio-Rad) in Tris-buffered saline–Tween-20 (TBS–T) (0.1% v/v) for 1 h at RT. Protein-bound membranes were incubated with indicated primary antibody overnight at 4 °C. After washing three times with TBS-T, membranes were incubated for 1 h with horseradish peroxidase–conjugated secondary antibody and then visualized by an ECL Prime detection system (GE Healthcare). Immunoblotting experiments were carried out at least three times, and representative images are shown. Densitometric quantitation of immunoblots was performed using Image Studio Lite Software (LI-COR). Changes of phosphorylated ERK1/2 to total ERK1/2 ratios are expressed as percentage of the vehicle-treated controls. The following antibodies were used: Phospho-Erk1/2 Ab (catalog no.: 9101S; Cell Signaling); total Erk1/2 Ab (catalog no.: 9102S; Cell Signaling); SHP2 Ab (catalog no.: A301-544A; lot no.: 1; Bethyl); and GAPDH (14C10) mAb (catalog no.: 2118S; lot no.: 14; Cell Signaling).

SHP2cat = biological target: T1, SHP2cat (Homo sapiens, UniProt Q06124); assay: Protein thermal shift (PTS) assay; type: binding; details: dose response
T1 construct: the SHP2 catalytic domain (SHP2cat; residues 248–527); made in house
T1 sequence (Q06124 248-527): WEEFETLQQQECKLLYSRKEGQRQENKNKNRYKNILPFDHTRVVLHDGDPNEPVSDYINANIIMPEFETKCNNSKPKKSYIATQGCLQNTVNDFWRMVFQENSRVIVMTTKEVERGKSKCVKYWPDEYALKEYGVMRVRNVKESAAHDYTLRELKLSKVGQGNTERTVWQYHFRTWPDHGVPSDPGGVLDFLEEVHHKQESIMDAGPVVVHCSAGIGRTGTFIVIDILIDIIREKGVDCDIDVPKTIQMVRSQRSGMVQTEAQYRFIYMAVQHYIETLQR
Excerpt: We confirmed specific and dose-dependent binding of inhibitors to SHP2 by PTS, which monitors the thermal stability of a target protein in vitro ([40]). […] In addition, we confirmed the inhibitory activity of several furanylbenzamide inhibitors, including the top two compounds SBI-2130 and SBI-4668, in SHP2cat inhibition assays using the alternative substrate 3-O-methylfluorescein phosphate (OMFP), which features a peak fluorescence emission that is red-shifted by ∼75 nm compared with DiFMUP. The Km value of OMFP for SHP2cat was determined to be 50 μM. An OMFP fluorescence intensity–based assay was used to perform inhibitor dose–response experiments and determine IC50 values.
Differential scanning fluorimetry (also known as protein thermal shift) measurements of SHP2cat were performed using optimized methods and conditions in accordance with those previously described ([36], [41], [49]). SBI-4668 was spotted at different concentrations into MicroAmp 384-well real-time PCR plates (catalog no.: 4483285; Applied Biosystems) using an Echo 555 Liquid Handler. […] Plates were analyzed using a ViiA 7 Real-Time PCR instrument (Applied Biosystems) and a 12 min temperature gradient with a temperature increase of 0.075 °C/s. The melting temperature and thermal profiles were determined as described previously using Protein Thermal Shift Software, version 1.3 (Applied Biosystems) ([36], [49]).

Question: `O=C(Nc1ccccc1)c1cc(-c2ccc(/C=C3\Sc4ccccc4C3=O)o2)ccc1O` [SBI-4668, (Z)-2-Hydroxy-5-(5-((3-oxobenzo[b]thiophen-2(3H)-ylidene)methyl)furan-2-yl)-N-phenylbenzamide] was tested. Which “p-ERK1/2 levels, MOLM-13, 3 h” value ([1]; 3 h) did it give?
Answer: dose-dependently inhibits ERK1/2 activation

Question: And the “p-ERK1/2 levels, MOLM-13, 24 h” value ([1]; 24 h)?
Answer: dose-dependently inhibits ERK1/2 activation

Question: And the “change of SHP2cat melting temperature (Tm) vs DMSO” value (SHP2cat)?
Answer: dose-dependently increased the melting temperature
